Reference: patent publication US7655643B2, “Antibacterial macrocycles with substituted biphenyl” (AiCuris GmbH & Co. KG, priority 2003, dated 2010)
Values after ≈ are worked out from the molar mass of the structure shown. Where a name gives a salt, the structure may show the parent alone.

Assays:
S. aureus 133 [1] = assay: MIC, liquid dilution test (96-well microtitre plate); type: cell-based; conditions: 18-24 h
Experimental: (§1) The minimum inhibitory concentration (MIC) is the minimum concentration of an antibiotic with which the growth of a test microbe is inhibited over 18-24 h. The inhibitor concentration can in these cases be determined by standard microbiological methods (see, for example, The National Committee for Clinical Laboratory Standards. Methods for dilution antimicrobial susceptibility tests for bacteria that grow aerobically; approved standard-fifth edition. NCCLS document M7-A5 [ISBN 1-56238-394-9]. NCCLS, 940 West Valley Road, Suite 1400, Wayne, Pa. 19087-1898 USA, 2000). The MIC of the compounds of the invention is determined in the liquid dilution test on the 96-well microtitre plate scale. The bacterial microbes are cultivated in a minimal medium (18.5 mM Na2HPO4, 5.7 mM KH2PO4, 9.3 mM NH4Cl, 2.8 mM MgSO4, 17.1 mM NaCl, 0.033 μg/ml thiamine hydrochloride, 1.2 μg/ml nicotinic acid, 0.003 μg/ml biotin, 1% glucose, 25 μg/ml of each proteinogenic amino acid with the exception of phenylalanine; [H.-P. Kroll; unpublished]) with addition of 0.4% BH broth (test medium). In the case of Enterococcus faecium L4001, heat-inactivated fetal calf serum (FCS; GibcoBRL, Germany) is added to the test medium in a final concentration of 10%. Overnight cultures of the test microbes are diluted to an OD578 of 0.001(to 0.01 in the case of enterococci) in fresh test medium, and incubated 1:1 with dilutions of the test substances (1:2 dilution steps) in test medium (200 μl final volume). The cultures are incubated at 37° C. for 18-24 hours; enterococci in the presence of 5% CO2.
(§2) The lowest substance concentration in each case at which bacterial growth was no longer visible is defined as the MIC. […] The compounds show a graded antibacterial effect against most of the test microbes.

S. aureus T17 [2] = assay: as above; type: cell-based; conditions: for MIC: Staphylococcus aureus, T17, read-out: MIC S. aureus T17
Experimental: as §1, §2
The S. aureus strain T17 is isolated in vivo. CFW1 mice are infected intraperitoneally with 4×10^7 S. aureus 133 cells per mouse. 0.5 h after the infection, the animals are treated intravenously with 50 mg/kg biphenomycin B. The kidneys are removed from the surviving animals on day 3 after the infection. After homogenization of the organs, the homogenates are plated out as described for RN4220Bi^R on antibiotic-free and antibiotic-containing agar plates and incubated at 37° C. overnight. […] About 20 of these colonies are tested for the biphenomycin B MIC, and a colony with an MIC of >50 μM is selected for further cultivation, and the strain is referred to as T17.

E. faecium L4001 [3] = assay: as above; type: cell-based, Enterococcus faecium
Experimental: as §1, §2

[4] = biological target: S. aureus 133 Translation; assay: S. aureus in vitro transcription-translation assay (firefly luciferase, S30 extract); type: biochemical
Text: In order to construct a reporter plasmid which can be used in an in vitro transcription -translation assay from S. aureus the plasmid pBESTluc (Promega Corporation, USA) is used. The E. coli tac promoter present in this plasmid in front of the firefly luciferase is replaced by the capA1 promoter with appropriate Shine-Dalgarno sequence from S. aureus. The primers CAPFor 5′-[…] -[…]-3′ and CAPRev 5′-[…]-3′ are used for this. The primer CAPFor contains the capA1 promoter, the ribosome binding site and the 5′ region of the luciferase gene. After PCR using pBESTluc as template it is possible to isolate a PCR product which contains the firefly luciferase gene with the fused capA1 promoter. This is, after restriction with ClaI and HindIII, ligated into the vector pBESTluc which has likewise been digested with ClaI and HindIII. The resulting plasmid pla can be replicated in E. coli and be used as template in the S. aureus in vitro transcription-translation assay.
Six liters of BHI medium are inoculated with a 250 ml overnight culture of a S. aureus strain and allowed to grow at 37° C. until the OD600 nm is 2-4. The cells are harvested by centrifugation and washed in 500 ml of cold buffer A (10 mM Tris acetate, pH 8.0, 14 mM magnesium acetate, 1 mM DTT, 1 M KCl). After renewed centrifugation, the cells are washed in 250 ml of cold buffer A with 50 mM KCl, and the resulting pellets are frozen at −20° C. for 60 min. The pellets are thawed on ice in 30 to 60 min and taken up to a total volume of 99 ml in buffer B (10 mM Tris acetate, pH 8.0, 20 mM magnesium acetate, 1 mM DTT, 50 mM KCl). 1.5 ml lysostaphin (0.8 mg/ml) in buffer B are introduced into 3 precooled centrifuge cups each and each mixed with 33 ml of the cell suspension. The samples are incubated at 37° C., shaking occasionally, for 45 to 60 min, before 150 μl of a 0.5 M DTT solution are added. The lysed cells are centrifuged at 30 000×g and 4° C. for 30 min. The cell pellet is taken up in buffer B and then centrifuged again under the same conditions, and the collected supernatants are combined. The supernatants are centrifuged again under the same conditions, and 0.25 volumes of buffer C (670 mM Tris acetate, pH 8.0, 20 mM magnesium acetate, 7 mM Na3 phosphoenolpyruvate, 7 mM DTT, 5.5 mM ATP, 70 μM amino acids (complete from Promega), 75 μg of pyruvate kinase (Sigma, Germany)/ml are added to the upper ⅔ of the supernatant. The samples are incubated at 37° C. for 30 min. The supernatants are dialysed against 21 of dialysis buffer (10 mM Tris acetate, pH 8.0, 14 mM magnesium acetate, 1 mM DTT, 60 mM potassium acetate) in a dialysis tube with a 3500 Da cut-off with one buffer change at 4° C. overnight. The dialysate is concentrated to a protein concentration of about 10 mg/ml by covering the dialysis tube with cold PEG 8000 powder (Sigma, Germany) at 4° C. The S30 extracts can be stored in aliquots at −70° C.
Inhibition of protein biosynthesis of the compounds can be shown in an in vitro transcription-translation assay. The assay is based on the cell-free transcription and translation of firefly luciferase using the reporter plasmid pla as template and cell-free S30 extracts obtained from S. aureus. The activity of the resulting luciferase can be detected by luminescence measurement.
The amount of S30 extract or plasmid plato be employed must be tested anew for each preparation in order to ensure an optimal concentration in the assay. 3 μl of the substance to be tested, dissolved in 5% DMSO, are introduced into an MTP. Then 10 μl of a suitably concentrated plasmid solution p1 a are added. Then 46 μl of a mixture of 23 μl of premix (500 mM Potassium acetate, 87.5 mM Tris acetate, pH 8.0, 67.5 mM ammonium acetate, 5 mM DTT, 50 μg of folic acid/ml, 87.5 mg of PEG 8000/ml, 5 mM ATP, 1.25 mM each NTP, 20 μM each amino acid, 50 mM PEP (Na3 salt), 2.5 mM cAMP, 250 μg each E. coli tRNA/ml) and 23 μl of a suitable amount of S. aureus S30 extract are added and mixed. […]

S. aureus 133 [5] = assay: MIC, alternative method, agar dilution test; type: cell-based
Experimental: (§3) The minimum inhibitory concentration (MIC) is the minimum concentration of an antibiotic with which the growth of a test microbe is inhibited over 18-24 h. The inhibitor concentration can be determined by standard microbiological methods using modified medium in an agar dilution test (see, for example, the National Committee for Clinical Laboratory Standards. Methods for dilution antimicrobial susceptibility tests for bacteria that grow aerobically; approved standard-fifth edition. NCCLS document M7-A5 [ISBN 1-56238-394-9]. NCCLS, 940 West Valley Road, Suite 1400, Wayne, PA. 19087-1898 USA, 2000). The bacterial microbes are cultivated on 1.5% agar plates containing 20% defibrinated horse blood. The test microbes, which are incubated on Columbia blood agar plates (Becton-Dickinson) overnight, are diluted in PBS, adjusted to a microbe count of about 5×10^5 microbes/ml and placed as drops (1-3 μl) on test plates. The test substances contain various dilutions of the test substances (1:2 dilution stages). The cultures are incubated at 37° C. in the presence of 5% CO2 for 18-24 hours.
(§4) The lowest concentration of each substance at which no visible bacterial growth occurs is defined as the MIC and is reported in μg/ml.

S. aureus T17 [6] = assay: MIC, alternative method, agar dilution test; type: cell-based; conditions: for MIC: Staphylococcus aureus
Experimental: as §3, §4

E. faecium L4001 [7] = assay: MIC, alternative method, agar dilution test; type: cell-based, Enterococcus faecium; conditions: for MIC: Enterococcus faecium
Experimental: as §3, §4

S. aureus RN4220Bi^R = assay: Biphenomycin B MIC of the isolated resistant colony; type: cell-based; conditions: colony isolated in vitro
Experimental: The S. aureus strain RN422OBi^R is isolated in vitro. […] Whereas about 1×10^7 cells grow on the antibiotic-free plate, about 100 colonies grow on the antibiotic-containing plate, corresponding to a resistance rate of 1×10^−5. Some of the colonies grown on the antibiotic-containing plate are tested for the biphenomycin B MIC. One colony with an MIC of >50 μM is selected for further use, and the strain is referred to as RN4220Bi^R.

[8] = agar dilution, 1.5% agar with 20% defibrinated horse blood, 5% CO2, 18-24 h
[9] = Staphylococcus aureus, 133, minimal medium + 0.4% BH broth
[10] = Enterococcus faecium, L4001, liquid dilution, test medium with 10% FCS, 5% CO2, 18-24 h, read-out: MIC E. faecium L4001
[11] = Staphylococcus aureus, 133, agar dilution, 1.5% agar with 20% defibrinated horse blood, 5% CO2, 18-24 h, read-out: MIC S. aureus 133
[12] = T17, agar dilution, 1.5% agar with 20% defibrinated horse blood, 5% CO2, 18-24 h, read-out: MIC S. aureus T17
[13] = L4001, agar dilution, 1.5% agar with 20% defibrinated horse blood, 5% CO2, 18-24 h, read-out: MIC E. faecium L4001

SMILES	MIC (S. aureus 133 [1]; minimal medium + 0.4% BH broth)	MIC, selected colony T17 (S. aureus T17 [2]; colony isolated in vivo from mouse kidney)	MIC S. aureus T17 (S. aureus T17 [2]; liquid dilution, biphenomycin-resistant strain, 18-24 h)	MIC (E. faecium L4001 [3]; liquid dilution, test medium with 10% FCS, 5% CO2, 18-24 h, read-out: MIC E. faecium L4001)	IC50 ([4]; Table A)	IC50 ([4]; Table B)	MIC S. aureus 133 (S. aureus 133 [5]; [8])	MIC S. aureus T17 (S. aureus T17 [6]; [8])	MIC E. faecium L4001 (E. faecium L4001 [7]; [8])	MIC, selected colony RN4220Bi^R (S. aureus RN4220Bi^R)	MIC (S. aureus 133 [1]; [9])	MIC (S. aureus T17 [2])	MIC (E. faecium L4001 [3]; [10])	MIC (S. aureus 133 [5]; [11])	MIC (S. aureus T17 [6]; [12])	MIC (E. faecium L4001 [7]; [13])	MIC (E. faecium L4001 [3]; Enterococcus faecium, L4001, read-out: MIC E. faecium L4001)	MIC (S. aureus 133 [5]; Staphylococcus aureus, 133, read-out: MIC S. aureus 133)	MIC (S. aureus T17 [6]; T17, read-out: MIC S. aureus T17)	MIC (E. faecium L4001 [7]; L4001, read-out: MIC E. faecium L4001)
NC[C@H](O)C[C@@H]1NC(=O)[C@@H](N)Cc2cc(ccc2O)-c2ccc(O)c(c2)C[C@@H](C(=O)O)NC1=O [Biphenomycin B, biphenomycin B, reference compound]	0.1 µM	> 50 µM	>25 µM	>25 µM	1500 nM	1500 nM	<0.03 µg/mL	>32 µg/mL	0.5 µg/mL (≈ 1.06 µM)	> 50 µM	–	–	–	–	–	–	–	–	–	–
CN1C(=O)[C@H](C[C@@H](O)CN)NC(=O)[C@@H](N)Cc2cc(ccc2O)-c2ccc(Cl)c(c2)C[C@H]1C(=O)NCC(O)CN (stereo partly drawn) [Example 9]	–	–	–	–	300 nM	300 nM	–	–	–	–	0.35 µM	0.7 µM (≈ 0.404 µg/mL)	11 µM (≈ 6.35 µg/mL)	2 µg/mL (≈ 3.47 µM)	4 µg/mL (≈ 6.93 µM)	16 µg/mL (≈ 27.7 µM)	–	–	–	–
NCCNC(=O)[C@@H]1Cc2cc(ccc2F)-c2ccc(O)c(c2)C[C@H](N)C(=O)N[C@@H](C[C@@H](O)CN)C(=O)N1 [Example 12]	–	–	–	–	800 nM	800 nM	–	–	–	–	0.16 µM	0.6 µM (≈ 0.31 µg/mL)	20 µM (≈ 10.3 µg/mL)	1 µg/mL (≈ 1.94 µM)	1 µg/mL (≈ 1.94 µM)	16 µg/mL (≈ 31 µM)	–	–	–	–
NCCNC(=O)[C@@H]1Cc2cccc(c2)-c2ccc(O)c(c2)C[C@H](N)C(=O)N[C@@H](C[C@@H](O)CN)C(=O)N1 [Example 36, (8S,11S,14S)-14-Amino-N-(2-aminoethyl)-11-[(2R) -3-amino-2-hydroxypropyl]-17-hydroxy-10,13-dioxo-9,12-diazatricyclo-[14.3.1.1^2,6]henicosa-1(20),2(21),3,5,16,18-hexaene-8-carboxamide tri(hydrotrifluoroacetate)]	–	–	–	–	360 nM	360 nM	–	–	–	–	0.4 µM	0.8 µM (≈ 0.399 µg/mL)	–	1 µg/mL (≈ 2.01 µM)	2 µg/mL (≈ 4.01 µM)	8 µg/mL (≈ 16 µM)	> 25 µM	–	–	–
CN1C(=O)[C@H](CCCN)NC(=O)[C@@H](N)Cc2cc(ccc2O)-c2ccc(Cl)c(c2)C[C@H]1C(=O)NCCN(CCN)CCN [Example 42, (8S,11S,14S)-14-Amino-11-(3-aminopropyl)-N-{2-[bis(2-aminoethyl)amino]ethyl}-5-chloro-17-hydroxy-9-methyl-10,13-dioxo-9,12-diazatricyclo[14.3.1.1^2,6]henicosa-1(20),2(21)3,5,16,18-hexaene-8-carboxamide penta(hydrotrifluoroacetate)]	–	–	–	–	–	80 nM	–	–	–	–	–	–	–	2 µg/mL (≈ 3.24 µM)	2 µg/mL (≈ 3.24 µM)	32 µg/mL (≈ 51.8 µM)	–	–	–	–
NCCC[C@@H]1NC(=O)[C@@H](N)Cc2cc(ccc2O)-c2ccc(N)c(c2)C[C@@H](C(=O)NCCN)NC1=O [Example 43, (8S,11S,14S)-5,14-Diamino-N-(2-aminoethyl)-11-(3-aminopropyl)-17-hydroxy-10,13-dioxo-9,12-diazatricyclo[14.3.1.1^2,6]henicosa-1(20),2(21),3,5,16,18-hexaene-8-carboxamide tetrahydrochloride]	–	–	–	–	–	900 nM	–	–	–	–	–	–	–	–	–	–	–	2 µg/mL	4 µg/mL	> 32 µg/mL
